The target in this assay is Cathepsin S (Homo sapiens, UniProt P25774). Nature of the assay: Cathepsin Enzyme Inhibition Assay: Enzyme activity is measured by observing the increase in fluorescence intensity caused by cleavage of a peptide substrate containing a fluorophore whose emission is quenched in the intact peptide.Assay buffer: 100 mM potassium phosphate pH 6.5, EDTA-Na 5 mM, Triton X-100 0.001%, DTT 5 mM.Enzymes (all at 1 nM): human and mouse Cathepsin S, Cat K, Cat B, Cat L.Substrate (20 Z-Val-Val-Arg-AMC, except for Cat K which uses Z-Leu-Arg-AMC (both from Bachem).Z=Benzyloxycarbonyl.AMC=7-Amino-4-Methyl-Coumarin.DTT=dithiothreitol.Final volume: 100 μL.Excitation 360 nm, Emission 465 nm.Enzyme is added to the substance dilutions in 96-well microtitre plates and the reaction is started with substrate. Fluorescence emission is measured over 20 minutes, during which time a linear increase is observed in the absence of inhibitor.

Experimental findings from ChEMBL document CHEMBL5726093, “Piperidine derivatives” (2019) are described below.

Cathepsin S, sequence (P25774 whole entry): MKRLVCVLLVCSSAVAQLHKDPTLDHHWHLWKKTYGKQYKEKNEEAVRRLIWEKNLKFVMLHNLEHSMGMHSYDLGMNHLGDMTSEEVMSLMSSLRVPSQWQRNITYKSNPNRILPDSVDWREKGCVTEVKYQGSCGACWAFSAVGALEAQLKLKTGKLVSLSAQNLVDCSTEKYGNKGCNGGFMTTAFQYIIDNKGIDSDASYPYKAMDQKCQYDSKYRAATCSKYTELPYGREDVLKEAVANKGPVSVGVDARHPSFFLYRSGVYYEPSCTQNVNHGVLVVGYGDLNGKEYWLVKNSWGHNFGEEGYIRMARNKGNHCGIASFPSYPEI

A word on the IC50: it is the concentration that gives 50% inhibition. Compound `Cn1c(=O)n(C2CCN(Cc3nc(-c4ccc(C(F)(F)F)cc4)[nH]c3-c3ccccc3)CC2)c2ccccc21` displayed an IC50 of 0.985 µM.
